In US20060177374A1, “Treatment of cancer with active vitamin D compounds in combination with radiotherapeutic agents and treatments” (Novacea, Inc., priority 2003, published 2006):

How the values were obtained:
[1] = in vivo; cited from earlier work
[2] = Solubility study of calcitriol in each formulation (light microscope); format: physicochemical; conditions: heated to 50° C., cooled to room temperature, highest concentration tested
Experimental: To further assess the formulations of calcitriol, a solubility study was conducted to evaluate the amount of calcitriol soluble in each formulation. Calcitriol concentrations from 0.1 to 0.6 μg calcitriol/mg formulation were prepared by heating the formulations to 50° C. followed by addition of the appropriate mass of calcitriol. The formulations were then allowed to cool to room temperature and the presence of undissolved calcitriol was determined by a light microscope with and without polarizing light. For each formulation, calcitriol was soluble at the highest concentration tested, 0.6 μg calcitriol/mg formulation.

SMILES	Hypercalcemic effect compared to calcitriol [1]	Calcitriol soluble in formulation [2]
C=C1/C(=C\C=C2/CCC[C@]3(C)C([C@H](C)CC#CC(C)(C)O)=CC[C@@H]23)C[C@@H](O)C[C@@H]1O [Ro23-7553]	reduced hypercalcemic effect	–
C=C1/C(=C\C=C2/CCC[C@]3(C)[C@@H]([C@H](C)CCCC(C)(C)O)CC[C@@H]23)C[C@@H](O)C[C@@H]1O [calcitriol, 1α,25-dihydroxyvitamin D3]	–	≥ 0.6 μg calcitriol/mg formulation
